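Interpolation was linear, between the two tested concentrations surrounding the appropriate level; five concentrations were tested over 48 hours in 96-well plates. Abbreviation: GI50, concentration required for 50% inhibition of growth. TGI marks complete inhibition of growth.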
Legend:
Assay in all cases: NCI tumour cell line growth inhibition, 48 h
[1] = system: 786-0 renal
[2] = system: A498 renal
[3] = system: A549 NSCLC
[4] = system: ACHN renal
[5] = system: BT-549 breast
[6] = system: CAKI-1 renal
[7] = system: CCRF-CEM leukemia
[8] = system: COLO 205 colon
[9] = system: DU-145 prostate
[10] = system: EKVX NSCLC
[11] = system: HCC-2998 colon
[12] = system: HCT-116 colon
[13] = system: HCT-15 colon
[14] = system: HL-60(TB) leukemia
[15] = system: HOP-62 NSCLC
[16] = system: HOP-92 NSCLC
[17] = system: HS 578T breast
[18] = system: HT29 colon
[19] = system: IGROV1 ovarian
[20] = system: K-562 leukemia
[21] = system: KM12 colon
[22] = system: LOX IMVI melanoma
[23] = system: M14 melanoma
[24] = system: MALME-3M melanoma
[25] = system: MCF7 breast
[26] = system: MDA-MB-231 breast
[27] = system: MDA-MB-435
[28] = system: MDA-MB-468 breast
[29] = system: MOLT-4 leukemia
[30] = system: NCI-H226 lung
[31] = system: NCI-H23 lung
[32] = system: NCI-H460 lung
[33] = system: NCI-H522 lung
[34] = system: NCI/ADR-RES ovarian
[35] = system: OVCAR-3 ovarian
[36] = system: OVCAR-4 ovarian
[37] = system: OVCAR-5 ovarian
[38] = system: OVCAR-8 ovarian
[39] = system: PC-3 prostate
[40] = system: RPMI-8226 leukemia
[41] = system: RXF 393 renal
[42] = system: SF-268 CNS
[43] = system: SF-295 CNS
[44] = system: SF-539 CNS
[45] = system: SK-MEL-2 melanoma
[46] = system: SK-MEL-28 melanoma
[47] = system: SK-MEL-5 melanoma
[48] = system: SK-OV-3 ovarian
[49] = system: SN12C renal
[50] = system: SNB-19 CNS
[51] = system: SNB-75 CNS
[52] = system: SR leukemia
[53] = system: SW-620 colon
[54] = system: T-47D breast
[55] = system: TK-10 renal
[56] = system: U251 CNS
[57] = system: UACC-257 melanoma
[58] = system: UACC-62 melanoma
[59] = system: UO-31 renal

O=C(c1ccc(Cl)cc1)C1[C@H](c2ccccc2Cl)[C@@H](c2ccccc2)NC12C(=O)Nc1ccccc12 (stereo partly drawn)
GI50 [1]: 20.5 µM
TGI [1]: 51.6 µM
GI50 [2]: 20.8 µM
TGI [2]: 60.1 µM
GI50 [3]: 24.9 µM
TGI [3]: > 100 µM
GI50 [4]: 20.9 µM
TGI [4]: 71.8 µM
GI50 [5]: 16.2 µM
TGI [5]: 48.5 µM
GI50 [6]: 18.9 µM
TGI [6]: > 100 µM
GI50 [7]: 27.2 µM
TGI [7]: 95 µM
GI50 [8]: 16.3 µM
TGI [8]: 29.9 µM
GI50 [9]: 17.1 µM
TGI [9]: 51.2 µM
GI50 [10]: 23.7 µM
TGI [10]: > 100 µM
GI50 [11]: 19.1 µM
TGI [11]: 51.7 µM
GI50 [12]: 14.5 µM
TGI [12]: 29.6 µM
GI50 [13]: 25.3 µM
TGI [13]: > 100 µM
GI50 [14]: 17 µM
TGI [14]: 58.8 µM
GI50 [15]: 17.4 µM
TGI [15]: 61.8 µM
GI50 [16]: 17.7 µM
TGI [16]: 58.4 µM
GI50 [17]: 12 µM
TGI [17]: 34.6 µM
GI50 [18]: 14.6 µM
TGI [18]: 35 µM
GI50 [19]: 26.1 µM
TGI [19]: > 100 µM
GI50 [20]: 21.7 µM
TGI [20]: > 100 µM
GI50 [21]: 20.2 µM
TGI [21]: 58.1 µM
GI50 [22]: 13.2 µM
TGI [22]: 27.3 µM
GI50 [23]: 16.3 µM
TGI [23]: 43.1 µM
GI50 [24]: 15.7 µM
TGI [24]: 34.8 µM
GI50 [25]: 16.2 µM
TGI [25]: 58.4 µM
GI50 [26]: 15 µM
TGI [26]: 40.8 µM
GI50 [27]: 12.7 µM
TGI [27]: 28.8 µM
GI50 [28]: 3.54 µM
TGI [28]: 20.6 µM
GI50 [29]: 20.3 µM
TGI [29]: 74.9 µM
GI50 [30]: 17.6 µM
TGI [30]: 47.4 µM
GI50 [31]: 18.3 µM
TGI [31]: 52 µM
GI50 [32]: 17.8 µM
TGI [32]: 36.8 µM
GI50 [33]: 15.2 µM
TGI [33]: 46.3 µM
GI50 [34]: 14.9 µM
TGI [34]: 35.8 µM
GI50 [35]: 12.5 µM
TGI [35]: 35 µM
GI50 [36]: 25.6 µM
TGI [36]: > 100 µM
GI50 [37]: 18.5 µM
TGI [37]: 66.7 µM
GI50 [38]: 22 µM
TGI [38]: 72.3 µM
GI50 [39]: 14.3 µM
TGI [39]: 72.9 µM
GI50 [40]: 25.7 µM
TGI [40]: 91.3 µM
GI50 [41]: 13.2 µM
TGI [41]: 34.3 µM
GI50 [42]: 23.2 µM
TGI [42]: > 100 µM
GI50 [43]: 18.2 µM
TGI [43]: 49.7 µM
GI50 [44]: 18.1 µM
TGI [44]: 36 µM
GI50 [45]: 14.8 µM
TGI [45]: 32.1 µM
GI50 [46]: 18.2 µM
TGI [46]: 40.3 µM
GI50 [47]: 15.2 µM
TGI [47]: 29.3 µM
GI50 [48]: 20.8 µM
TGI [48]: 82.7 µM
GI50 [49]: 13.7 µM
TGI [49]: 28.4 µM
GI50 [50]: 30 µM
TGI [50]: > 100 µM
GI50 [51]: 11 µM
TGI [51]: 71.3 µM
GI50 [52]: 14.7 µM
TGI [52]: 53.5 µM
GI50 [53]: 17.6 µM
TGI [53]: 51.2 µM
GI50 [54]: 18.3 µM
TGI [54]: 74.1 µM
GI50 [55]: 23.4 µM
TGI [55]: 87.9 µM
GI50 [56]: 23 µM
TGI [56]: 64.8 µM
GI50 [57]: 23.3 µM
TGI [57]: 79 µM
GI50 [58]: 12.6 µM
TGI [58]: 27.8 µM
GI50 [59]: 16.4 µM
TGI [59]: > 100 µM

Source: PubChem BioAssay (NCI)
